{"source": "patent US20070099822A1", "about": "“Regulation of tissue mineralization and phosphate metabolism by asarm peptides” (priority 2003, published 2007)", "key": {"MEPE-PHEX interaction": {"biological_target": "T1, MEPE-PHEX interaction (Homo sapiens, UniProt P78562)", "T1 construct": "to generate a soluble, secreted form of PHEX; made in house; host or cells: secPHEX: mammalian cells (gift, University of Montreal); MEPE: S. frugiperda insect cells", "T1 sequence (P78562 46-749 limits assumed)": "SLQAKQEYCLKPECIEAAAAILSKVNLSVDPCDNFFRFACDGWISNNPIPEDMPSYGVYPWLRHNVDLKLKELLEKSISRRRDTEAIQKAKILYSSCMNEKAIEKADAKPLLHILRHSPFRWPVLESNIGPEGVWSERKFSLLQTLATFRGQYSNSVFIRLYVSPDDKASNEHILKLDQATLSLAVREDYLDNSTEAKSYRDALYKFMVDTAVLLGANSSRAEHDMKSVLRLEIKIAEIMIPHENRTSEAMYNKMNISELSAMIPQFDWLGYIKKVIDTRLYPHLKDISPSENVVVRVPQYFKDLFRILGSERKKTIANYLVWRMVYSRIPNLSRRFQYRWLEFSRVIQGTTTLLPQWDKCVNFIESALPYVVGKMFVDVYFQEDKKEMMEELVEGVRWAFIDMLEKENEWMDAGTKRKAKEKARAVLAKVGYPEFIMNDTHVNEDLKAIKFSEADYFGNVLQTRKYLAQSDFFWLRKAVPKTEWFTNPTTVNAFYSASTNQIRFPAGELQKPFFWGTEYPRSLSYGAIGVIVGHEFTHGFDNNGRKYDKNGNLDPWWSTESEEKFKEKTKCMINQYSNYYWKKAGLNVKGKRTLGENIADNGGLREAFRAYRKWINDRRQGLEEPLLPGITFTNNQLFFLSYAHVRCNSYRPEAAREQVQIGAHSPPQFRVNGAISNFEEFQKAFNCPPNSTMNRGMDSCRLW", "experiment": "Surface plasmon resonance, peptide solution competition of secPHEX-MEPE binding", "text": "Surface Plasmon Resonance: Synthetic peptides & competitive PHEX-MEPE binding studies. For these experiments CM-5 chips containing flow-cells immobilized with MEPE, PHEX and IgG ligands at 6000 RU were used. Just prior to SPR injection, stock solution of specific-peptide (as defined for each experiment; see Table 1), and dissolved in analyte buffer (HBS-P—Zn) […] The following equation was used to compute KDapp values: RU=Bmax/inhib×(peptide(μM))/KDapp+(peptide(μM)). The Bmax/inh value represents the maximal percentage inhibition change in RU (i.e., PHEX-MEPE binding) relative to the “non-peptide” control (0% inhibition of binding), using a constant analyte flow-solution of secPHEX of 250 nM against immobilized MEPE ligand at 6000 RU. […] The control MEPE-RGD peptide had no effect on MEPE-PHEX interactions."}, "male ICR Swiss mice": {"tested_on": "male ICR Swiss mice", "experiment": "Example VI: subcutaneous PO4-ASARM-peptide or etidronate, calcein fluorescence and Sanderson osteoid staining", "format": "in vivo", "settings": "four layers visible in vehicle group", "experimental": "Subcutaneous administration of PO4-ASARM-peptide, etidronate (EHDP), and calcein. Three separate groups of male ICR Swiss mice (4-5 weeks) were subcutaneously injected once a day (9:00AM), for 12 days except for days 6 and 7 with 50 μL solutions of either (1) Eitidronate (EHDP) (10 mg/kg/day); (2) PO4-ASARM-peptide (2 mg/kg/day); or (3) vehicle consisting of 5 mM HEPES pH 7.4/150 mM NaCL/0.1% BSA. The synthetic PO4-ASARM-peptide was dissolved in vehicle (1.0 mg/mL). Etidronate was first dissolved in 150 mM NaCl and then buffered to pH 7.5 with 1M NaOH to give a 5 mg/mL solution. The 10 mg/kg/day doses of etidronate have previously been reported to inhibit mineralization in rats and were used as positive controls (Trechsel, et al., Am J Physiol 232(3):E298-305, 1977; Bonjour, et al., Am J Physiol 229(2):402-8, 1975). All three groups were subcutaneously injected with calcein (20 mg/kg/day) on days 3, 5, […]. The degree of calcein fluorescence and/or fluorescence-quenching is an indicator of mineralization status (see next section). The calcein injections when given were administered 1 h after the daily injections of PO4-ASARM-peptide, EHDP or vehicle. Animals were then terminated humanely and calvariae plus femurs/tibia were fixed in 70% ethanol (non-decalcified). After fluorescence imaging (see FIG. 35) calvariae were processed in plastic and stained with Sanderson's stain (see below). Five animals per group were used for statistical analysis of fluorescence quenching and histological Sanderson staining.\nCalcein fluorescence in mice calvariae, hind-limbs & fluor-imager analysis of mineralization. A Bio-Rad (Hercules, Calif.) FluorImager^max fluorescent imager was used to simultaneously image all the samples from each of the 3 groups (15 animals; five animals per group). This consisted of 10 tibia/femurs and 5 calvariae per group. Samples were placed on top of the FluorImager plate contained within a light-tight box. Ultra-violet light was used to generate calcein-mediated epi-fluorescence and the fluorescent-image was captured on a −40° C., peltier-cooled, 1,340×1040 pixel CCD resolution, CCD digital-camera. Quantitation of fluorescence was carried out using Quantity-1 (Bio-Rad, Hercules, Calif.) fluorescence-software. Pixel saturation was prevented by internal software calibration and exposure adjustment. All fluorescence readings were thus accurately quantitative and non-saturating. Photo-micrographic UV fluorescent analysis of calvarial cross sections embedded in plastic and mounted as slides (<100 micrometer sections) was also undertaken and a description of the fixation and processing is given in the next section.\nSanderson-staining and fluorescence detection of calvarial osteoid & mineralized bone. Staining of non-decalcified calvarial sections was performed using the method described by Sanderson and Bachus (Staining technique to differentiate mineralized and demineralized bone in ground sections, J Histotechnol 20(2): 119-122, 1997). This technique provides differential staining between unmineralized osteoid and mineralized bone. Prior to staining, calvariae were dissected and attached tissue removed. Calvariae were then placed in 70% ethanol for further fixation as described by Sanderson and Bachus (supra). After fixing and processing undecalcified calvariae were embedded in plastic (LR-white acrylic resin (London Resin Co., Reading, England)) as previously described (Garrett, et al., Selective inhibitors of the osteoblast proteasome stimulate bone formation in vivo and in vitro, J Clin Invest 111(11):1771-1782, 2003). Plastic embedded sections were ground to <100 micrometers using a specialized grinding-pestle as described by Donath and Breuner (A method for the study of undecalcified bones and teeth with attached soft tissues. The Sage-Schliff (sawing and grinding) technique, J Oral Pathol 11(4):318-26, 1982). […]"}}, "note": "“Also recorded” adds a separate entry of the source."}
{"substance": "H-CFSSRRRDDSSESSDSGSSSESDGD-OH [ASARM-peptide]", "values": [{"measurement": "Kd", "setting": "MEPE-PHEX interaction; 250 nM secPHEX, MEPE 6000 RU, read-out: apparent KDapp, solution competition of MEPE-PHEX binding", "value": "~35", "unit": "µM"}, {"measurement": "inhibition of MEPE-PHEX interaction", "setting": "MEPE-PHEX interaction; peptide pre-mixed with secPHEX, MEPE-RGD up to 85 μM", "value": "able to inhibit; also recorded: dramatic dose-dependent inhibition"}, {"measurement": "lamellar calcein fluorescent layers in calvarial cross-sections", "setting": "male ICR Swiss mice", "value": "complete absence"}]}
